Read-outs that look alike come from different tables or passages of the source.

Broadly, the mortality is the share of the test organisms that died.

Holding throughout (format): in vivo
In assay [1] the test system is larvae of 28-spotted lady beetle (Epilachna vigintioctopunctana Fabricius). Description: Test Example 8: insecticidal activity against larvae of 28-spotted lady beetle. To be noted: 120 h. The protocol:
Insecticidal activity against larvae of 28-spotted lady beetle (Epilachna vigintioctopunctana Fabricius).
Testing method: Leaflets of tomato grown in a greenhouse were dipped in a test composition of 100 ppm concentration for 30 seconds and after that the leaflets were dried by air. In a Petri dish covered on the bottom with a piece of filter paper, were introduced 1 ml of water and three treated tomato leaflets. After having been infested with seven second-instar larvae of 28-spotted lady beetle, the Petri dish was left standing in a constant temperature cabinet at 25° C. Five days after the treatment, the dead-and-survival was inspected to calculate the mortality (2-replication test).

The test system of assay [2] is larvae of house mosquito (Culex pipiens pallens Coquillett). The experiment in a line: Test Example 6: insecticidal activity to larvae of house mosquito. To be noted: 120 h. How it is done: Insecticidal activity to larvae of house mosquito (Culex pipiens pallens Coquillett).
Test method: In a 200-ml beaker, was placed together with a feed 100 ml of a test composition diluted with deionized water to 10 ppm concentration. The test composition was infested with 20 first-instar larvae of house mosquito and the beaker was covered with a sheet of Japanese paper. The beaker was kept in a constant temperature cabinet at 25° C. Five days after the treatment, the dead-and-survival was inspected to calculate the mortality.

For assay [3], the system named is larvae of brown planthopper (Nilaparvata lugens Stahl). The experiment in a line: Test Example 1: insecticidal activity against larvae of brown planthopper. The conditions noted are these: 120 h, third-instar larvae, 25° C., 5 days after treatment. The protocol:
Insecticidal activity against larvae of brown planthopper (Nilaparvata lugens Stahl).
Testing method: Five rice seedlings of the 1.5 leaf age were dipped in a test composition of 400 ppm concentration for 30 seconds. After air-drying, the seedlings were placed in a glass tube containing 1 ml of water and infested with five third-instar larvae of brown planthopper. The glass tube was left standing in a constant temperature cabinet at 25° C. and 5 or 7 days after the treatment, dead-and-survival was observed. Mortality was calculated from the results of 3-replication test.

For assay [4], the system named is two-spotted spider mite (Tetranychus urticae Koch). Description: Test Example 3: activity to two-spotted spider mite. The conditions noted are these: 120 h, 1,000 ppm, 5 days after treatment. The source says:
Activity to two-spotted spider mite (Tetranychus urticae Koch).
Testing method: Two-spotted spider mites were set free on the pot-planted soybean in a greenhouse. On the next day, a test composition of 1,000 ppm concentration was sprayed over the soybean by means of a spray gun. Two days or five days after the treatment, dead-and-survival was inspected to calculate the mortality.

Assay [5] deals with larvae of green rice leafhopper (Nephotettix cincticeps Uhler). The experiment in a line: Test Example 5: activity against larvae of green rice leafhopper. To be noted: 168 h, 400 ppm, second-instar larvae, 25° C., seven days after treatment, read-out: Mortality. The protocol: Activity against larvae of green rice leafhopper (Nephotettix cincticeps Uhler).
Testing method: Five rice seedlings of the 1.5 leaf age were dipped in a test composition of 400 ppm concentration for 30 seconds. After air-drying, the seedlings were placed in a glass tube containing 1 ml of water and infested with five second-instar larvae of green rice leafhopper. The glass tube was left standing in a constant temperature cabinet at 25° C. Seven days after the treatment, dead-and-survivalwas inspected to calculate the mortality (3-replication test).

The test system of assay [6] is larvae of white-backed planthopper (Sogatella furcifera Horvath). The experiment in a line: Test Example 2: insecticidal activity against larvae of white-backed planthopper. To be noted: 168 h, 400 ppm, first-instar larvae, 25° C., seven days after treatment, read-out: Mortality. The protocol: Insecticidal activity against larvae of white-backed planthopper (Sogatella furcifera Horvath).
Testing method: Five rice seedlings of the 1.5 leaf age were dipped in a test composition of 400 ppm concentration for 30 seconds. After air-drying, the seedlings were placed in a glass tube containing 1 ml of water and infested with five first-instar larvae of white-backed planthopper. The glass tube was left standing in a constant temperature cabinet at 25° C. and seven days after the treatment, dead-and-survival was observed. Mortality was calculated from the results of 3-replication test.

[7] abbreviates: 100 ppm, second-instar larvae, 25° C., five days, read-out: Mortality.

For the compound `CCCCN=C1SCN(c2ccccc2)C(=O)N1CCCC` [Compound 146], in assay [1], the mortality at 100 ppm was determined as 100%. The same compound yielded a mortality at 10 ppm in assay [2] of 100%.

The compound `CCCCN1C(=O)N(c2ccccc2)CSC1=NC(C)C` [Compound 147] yielded a mortality at 100 ppm in assay [1] of 100%. In assay [3], the mortality at 400 ppm worked out at 100%. The compound also registered a mortality at 10 ppm in assay [2] of 100%.

For the compound `CCC(C)N=C1SCN(c2ccccc2)C(=O)N1c1ccccc1` (centres unmarked) [Compound 163, 2-s-Butylimino-3,5-diphenyl-tetrahydro-1,3,5-thiadiazin-4-one], the mortality at 100 ppm in assay [1] (setting [7]) was found to be 60%.

For `CC(C)N=C1SCN(c2ccc(Cl)cc2)C(=O)N1C(C)C` [Compound 194], the mortality at 1000 ppm in assay [4] is 100%. The mortality at 400 ppm in assay [5] and in assay [3] was 100% throughout. In addition, in assay [2], the mortality at 10 ppm was found to be 80%.

With `CC(C)N1C(=O)N(c2ccc(Cl)cc2)CSC1=NC(C)(C)C` [Compound 196, 2-t-Butylimino-3-isopropyl-5-(p-chlorophenyl)-tetrahydro-1,3,5-thiadiazin-4-one], the mortality at 1000 ppm in assay [4] came out at 100%. In addition, the mortality at 400 ppm in assay [3] was 100%; in assay [6], 90%.

Turning to `CCC(C)N=C1SCN(c2ccc(Cl)cc2)C(=O)N1C(C)CC` (centres unmarked) [Compound 197], the mortality at 1000 ppm in assay [4] was 80%. In addition, the mortality at 400 ppm was 100% in assay [3] and 90% in assay [6]. Besides, the mortality at 10 ppm in assay [2] is 100%.

Regarding `CCC(C)N1C(=O)N(c2ccc(Cl)cc2)CSC1=NC(C)(C)C` (centres unmarked) [Compound 198], the mortality at 100 ppm in assay [1] was determined as 100%. In assay [4], this compound displayed a mortality at 1000 ppm of 100%. The mortality at 400 ppm in assay [5], in assay [3] and in assay [6] was 100% in each case. In assay [2], the mortality at 10 ppm turned out to be 100%.

The compound `CC(C)N=C1SCN(c2cccc(Cl)c2)C(=O)N1C(C)C` [Compound 220] gave a mortality at 100 ppm in assay [1] of 100%. For the same compound, the mortality at 400 ppm in assay [5], in assay [3] and in assay [6] was 100% each time. The compound also had a mortality at 10 ppm in assay [2] of 80%.

In turn, `CC(C)N1C(=O)N(c2cccc(Cl)c2)CSC1=NC(C)(C)C` [Compound 221, 2-t-Butylimino-3-isopropyl-5-(m-chlorophenyl)-tetrahydro-1,3,5-thiadiazin-4-one] came in with a mortality at 100 ppm in assay [1] of 90%. Further, in assay [4], the mortality at 1000 ppm turned out to be 100%. Besides, the mortality at 400 ppm in assay [5], in assay [3] and in assay [6] was 100% each time. Moreover, the mortality at 10 ppm in assay [2] is 100%.

`CCC(C)N1C(=O)N(c2cccc(Cl)c2)CSC1=NC(C)(C)C` (centres unmarked) [Compound 225, 2-t-Butylimino-3-s-butyl-5-(m-chlorophenyl)-tetrahydro-1,3,5-thiadiazin-4-one] had a mortality at 1000 ppm in assay [4] of 100%. Also, the mortality at 400 ppm in assay [5] worked out at 90%; in assay [3], 100%; in assay [6] it was 100%. In addition, the mortality at 10 ppm in assay [2] came out at 100%.

In turn, `CC(C)N=C1SCN(c2ccccc2Cl)C(=O)N1C(C)C` [Compound 244, 2-Isopropylimino-3-isopropyl-5-(o-chlorophenyl)-tetrahydro-1,3,5-thiadiazin-4-one] showed a mortality at 1000 ppm in assay [4] of 70%. Further, the mortality at 400 ppm in assay [5], in assay [3] and in assay [6] was 100% each time. The compound further yielded a mortality at 10 ppm in assay [2] of 100%.

The compound `CCC(C)N=C1SCN(c2ccccc2Cl)C(=O)N1C(C)CC` (centres unmarked) [Compound 248] returned a mortality at 1000 ppm in assay [4] of 100%. Besides, the mortality at 400 ppm in assay [5] and in assay [3] was 100% each time. The mortality at 10 ppm in assay [2] came out at 90%.

On to `CC(C)N1C(=O)N(c2ccc(F)cc2)CSC1=NC(C)(C)C` [Compound 282, 2-t-butylimino-3-isopropyl 5-(p-fluorophenyl)-tetrahydro-1,3,5-thiadiazin-4-one], for which the mortality at 1000 ppm in assay [4] was 80%. Besides, the mortality at 400 ppm in assay [5], in assay [3] and in assay [6] was 100% each time. The compound further gave a mortality at 10 ppm in assay [2] of 90%.

The compound `CCC(C)N1C(=O)N(c2ccccc2C)CSC1=NC(C)(C)C` (centres unmarked) [Compound 303] registered a mortality at 100 ppm in assay [1] of 100%. This compound also showed a mortality at 1000 ppm in assay [4] of 80%. The mortality at 400 ppm in assay [5], in assay [3] and in assay [6] was 100% each time.

In the case of `CCCN1C(=O)N(c2ccc(C)cc2)CSC1=NC(C)C` [Compound 314], the mortality at 100 ppm in assay [1] worked out at 100%. For the same compound, the mortality at 1000 ppm in assay [4] came out at 100%. Moreover, the mortality at 400 ppm in assay [3] amounted to 100%. Further, the mortality at 10 ppm in assay [2] is 100%.

The compound `Cc1cccc(N2CSC(=NC(C)C)N(C(C)C)C2=O)c1` [Compound 325] registered a mortality at 100 ppm in assay [1] of 100%. Further, the mortality at 400 ppm in assay [5], in assay [3] and in assay [6] was 100% in each case. Besides, in assay [2], the mortality at 10 ppm came out at 100%.

In assay [1], `COc1ccc(N2CSC(=NC(C)C)N(C(C)C)C2=O)cc1` [Compound 352] gave a mortality at 100 ppm of 100%. For the same compound, the mortality at 400 ppm in assay [5], in assay [3] and in assay [6] was 100% each time. Besides, the mortality at 10 ppm in assay [2] was found to be 100%.

For the compound `CC(C)N1C(=O)N(c2ccc([N+](=O)[O-])cc2)CSC1=NC(C)(C)C` [Compound 364], the mortality at 100 ppm in assay [1] amounted to 80%. In addition, the mortality at 1000 ppm in assay [4] was 60%. The compound also registered a mortality at 400 ppm in assay [3] of 100%.

The compound `CCc1cccc(CC)c1N1CSC(=NC(C)C)N(C(C)C)C1=O` [Compound 395, 2-Isopropylimino-3-isopropyl-5-(2,6-diethylphenyl)-tetrahydro-1,3,5-thiadiazin-4-one] returned a mortality at 1000 ppm in assay [4] of 80%. For the same compound, the values for the mortality at 400 ppm in assay [5], in assay [3] and in assay [6] were 100%, 100% and 90%, respectively. The mortality at 10 ppm in assay [2] amounted to 100%.

Take `CC(C)N=C1SCN(c2ccc(Cl)cc2Cl)C(=O)N1C(C)C` [Compound 398]: in assay [1], the mortality at 100 ppm was determined as 80%. Moreover, in assay [4], the mortality at 1000 ppm turned out to be 80%. For the same compound, the mortality at 400 ppm in assay [3] is 100%.

Consider `CC(C)N1C(=O)N(c2ccc(Cl)cc2Cl)CSC1=NC(C)(C)C` [Compound 399], for which, in assay [1], the mortality at 100 ppm is 100%. The same compound registered a mortality at 1000 ppm in assay [4] of 80%. In addition, the mortality at 400 ppm in assay [3] amounted to 100%.

`CCN=C1SCN(c2cc(Cl)cc(Cl)c2)C(=O)N1CC` [Compound 404]: the mortality at 100 ppm in assay [1] was 90%. The compound further showed a mortality at 1000 ppm in assay [4] of 100%.

With `CCCN1C(=O)N(c2cc(Cl)cc(Cl)c2)CSC1=NC(C)C` [Compound 405], in assay [1], the mortality at 100 ppm came out at 90%.

On to `CCC(C)N=C1SCN(c2cc(Cl)cc(Cl)c2)C(=O)N1C(C)CC` (centres unmarked) [Compound 411], for which the mortality at 100 ppm in assay [1] worked out at 100%. Moreover, in assay [4], the mortality at 1000 ppm was determined as 100%. This compound gave a mortality at 400 ppm in assay [3] of 60%.

Take `C=CCN1C(=O)N(c2cc(Cl)cc(Cl)c2)CSC1=NC(C)C` [Compound 412, 2-Isopropylimino-3-allyl-5-(3,5-dichlorophenyl)-tetrahydro-1,3,5-thiadiazin-4-one]: in assay [1], the mortality at 100 ppm amounted to 100%. The mortality at 1000 ppm in assay [4] turned out to be 100%. This compound showed a mortality at 400 ppm in assay [3] of 100%.

On to `CCN1C(=O)N(c2ccc(Cl)c(Cl)c2)CSC1=NC(C)(C)C` [Compound 418], for which the mortality at 100 ppm in assay [1] (setting [7]) came out at 70%. The compound also had a mortality at 1000 ppm in assay [4] of 70%. The mortality at 400 ppm in assay [3] was 60%.

In the case of `CC(C)N=C1SCN(c2ccc(Cl)c(Cl)c2)C(=O)N1Cc1ccccc1` [Compound 422], in assay [1], the mortality at 100 ppm was found to be 90%. Moreover, in assay [4], the mortality at 1000 ppm turned out to be 100%. The mortality at 400 ppm in assay [3] was found to be 60%.

Values taken from patent US4159328A, “Tetrahydro-1,3,5-thiadiazin-4-one derivative” (Nihon Nohyaku Co., Ltd., priority 1977, dated 1979).
